≈ marks a conversion by molar mass, not a printed value. One block for each molecule: values may come before it.
Tests used:
60 kinase assays = assay: Kinase and biochemical assay screens (Upstate panel); details: concentrations of less than 1 μg/ml; 1 μM in 60 kinase assays
Text: In an effort to understand how these compounds might be acting at the cellular and molecular level, several screens of drug activity were initiated. The first 2 screens were designed to test the activity of drug on certain binding events and the activity of a variety of enzymes in vitro (FIGS. 14 and 15).

[1] = system: CD23 and the IL-4 receptor on murine B cells and human monocytes; assay: Induction of CD23 and IL-4 receptor expression; type: cell-based, mouse; details: murine B cells and human monocytes in vitro
[2] = system: rat basophilic leukemia (RBL) cells; assay: Degranulation of RBL cells; type: cell-based; details: induced with PMA/ionomycin or IgE-antigen complexes, not shown
Text: The proposed mechanism of the AVP compounds on intracellular protein transit also allows certain predictions as to other effects and non-effects that these compounds might share. For example, inhibition of vesicle fusion or budding between the ER and golgi should not affect exocytosis as would be expected of a post-golgi active compound such as Monensin. AVP 893 has minimal effects on the expression of proteins involved in exocytosis, particularly VAMP, SNAP23 (non-neuronal cells), and SNAP25 (neuronal cells).

[3] = system: T cells from mouse spleen and human PBL; assay: T cell cytokine responses in vitro (Luminex beads); type: cell-based
Text: These series of compounds were initially identified on the basis of their IgE-blocking activity in an ex vivo IgE response protocol (FIG. 2), and the biological activity of all analogs are characterized on the basis of their activity in this assay. Activity in the ex vivo assay is corroborated in the in vitro assay of B cell response to 1L-4/anti-CD40 Ab-stimulated IgE in human PBL (FIG. 3) using standard procedures, and mouse splenic B cells (not shown). Drug action on T cells was shown by testing T cell cytokine responses to various stimuli in vitro. The response of a cadre of cytokines and chemokines to several alternative stimuli was tested in T cells from both mouse spleen and human PBL. T cells were isolated from murine spleen and cultured for 16 hours in the presence of stimulus+/−AVP 13358. Supernatants were quantified for cytokines using Luminex beads. All cytokines achieved levels of at least 200 pg/ml and 10-fold higher than background (FIG. 4). T cells were isolated from donor PBL and cultured for 16-36 hours in the presence of Phytohemaglutin (PHA, 5 μg/ml) and ConA (5 μg/ml)+/−AVP 13358. Supernatants were quantified for cytokines using Luminex beads (FIG. 5). […] Total protein was assessed by the SRB assay, as adopted for many of the proliferation experiments outline below.

[4] = system: tumor cell lines (NCI 60-cell screening panel); details: NCI 60-cell screen, data from the NCI database; cited from earlier work
Mannosidase II = Mannosidase II immunocytochemistry; type: cell-based; details: 1 hr of treatment, immunocytochemistry
Description: GS15, GS28, GPP130, and Mannosidase II, sparing the golgi structural protein GM-130 and having little effect on the Rab GTPase Rab6. Furthermore, these affects were most pronounced following overnight (16-20 hr) incubations with AVP 893, although some affects at early time points were seen. These conclusions were drawn from the western blot analysis (FIG. 29), as well as from the immunocytochemical studies (FIGS. 30-31).
Additional evidence that AVP 893 has unique activity against resident golgi proteins (e.g. Mannosidase II), was found using both shorter durations of drug exposure and immunocytochemistry instead of western blot analysis (FIG. 43).

GS28 = GS28 expression by Western blotting; type: cell-based; details: MOLT4, Hs578T, H-460, overnight
Description: The culture medium was removed by vacuuming (for attached cells) or by low speed centrifugation (for suspension cells) for 5-7 minutes at room temperature. The cells were wasedh twith PBS, spun at 1200 rpm and the cell pellets were kept on ice. 300 μl/2.0×10^7 cells of ice cold lysis buffer was added with freshly added protease inhibitors. Cell pellets were gently resuspended and incubated on ice for at least 30 min, vortexed a few times during incubation. Cell lysate was spun at 14,000 rpm for 2-5 min at 4° C. The supernatant was transferred to a new microfuge tube and the pellet was discarded. An aliquot of sample was mixed with an equal volume of 2× sample buffer (InVitrogen), and stored at −80° C. Protein concentration was determined by using “BCA protein assay reagent kit” from Pierce.
Protein samples (in sample buffer) were boiled for 1-3 minutes and put on ice. Same amount of protein were loaded on the NuPage gel (InVitrogen). After the electrophoresis was complete, proteins were transferred from the gel to a PVDF membrane using the electro-blotting apparatus from InVitrogen; the voltage was set to 25 for 2-3 hr. Block non-specific binding by incubating membrane with 5% milk (in PBS, 0.1% tween 20) for at least 30 min at room temperature or overnight at 4° C. The blocked membrane was incubated with primary antibody (See TABLE 2) diluted in 5% milk for 1 hour at room temperature. Optimal antibody dilution depends on the company, the amount of protein. Dilutions of 1:1000 were generally used for the primary antibodies from Santa Cruz. The membrane was washed with PBS, 0.1% tween 3-4 times 5 mins. The membrane was incubated for 30-60 minutes at room temperature with horseradish peroxidase (HRP) conjugated secondary antibody diluted in 5% milk. We usually used 1:4000 dilution for the secondary antibody from Santa Cruz. The membrane was washed 3-4 times with PBS, 0.1% tween, each time 15 minutes. The detection solutions A and B were mixed in a ratio 40:1 and Pipetted onto the membrane, and incubated for 5 min at RT. A sheet of Hyper film ECL was placed on the top of the membrane in the dark and exposed for 1 min, or adjust accordingly.
To further examine the putative protein trafficking effects of AVP 893, other proteins in this pathway were tested in vitro in B16 and other cell lines. The effect of AVP 893 on cellular proteins was corroborated in B16 cells and extended to include a time-course (FIG. 17). B16-F10 tumor cells were seeded in T75 flasks at 20% confluence and cultured overnight. AVP 893 (100 ng/ml) was added to several flasks and one flask of cells was harvested at several time points following addition of compound. Lysates were prepared, separated by electrophoresis, and probed with antibody as described above in the general Western blotting protocol. Drug effects on GS28 and nicastrin paralleled each other and were progressively stronger with longer drug incubations. […] Other cell lines were tested for their expression of GS28 and nicastrin and found to respond similarly to drug, although quantitative differences were evident. Tumor cell lines found to respond similarly to AVP 893 include CAK1, SF295, PC3, MOLT4, Neuro2a, and RBL (FIGS. 18, 19, and 20). For the experiment shown in FIG. 18, LOX, CAKI, and 3T3 cell lines were treated as described for FIG. 17. For the results shown in FIG. 19, SF295, PC3, MOLT-4, and Neuro2a cells were treated as described for FIG. 17. For the results shown in FIG. 20, LOX, 3T3, and RBL cell lines were treated with varying concentrations of AVP 893 as described for FIG. 17. The effects on LOX cells were less evident. […] Levels of calnexin, a resident ER protein used as a control, were unchanged in drug-treated cells.

NCI H-460 = assay: Inhibition of tumor cell proliferation in vitro (SRB total protein); type: cell-based; details: in-house head-to-head, about 72 hours, SRB
Description: (§1) For a typical screening experiment, cells are inoculated into 96 well microtiter plates in 100 μl at plating densities ranging from 5,000 to 40,000 cells/well depending on the doubling time of individual cell lines. After cell inoculation, the microtiter plates are incubated at 37° C., 5% or 10% CO2—depending on the cell line and media—95% air and 100% relative humidity for 24 h prior to addition of experimental drugs. After 24 h, two plates of each cell line are fixed in situ with TCA, to represent a measurement of the cell population for each cell line at the time of drug addition. Following drug addition, the plates are incubated for an additional 48 h at 37° C., 5%/10% CO2, 95% air, and 100% relative humidity. For adherent cells, the assay is terminated by the addition of cold TCA. Cells are fixed in situ by the gentle addition of 50 μl of cold 50% (w/v) TCA (final concentration, 10% TCA) and incubated for 60 minutes at 4° C. The supernatant is discarded, and the plates are washed five times with tap water and air-dried. Sulforhodamine B (SRB) solution (10011) at 0.4% (w/v) in 1% acetic acid is added to each well, and plates are incubated for 10 minutes at room temperature. After staining, unbound dye is removed by washing five times with 1% acetic acid and the plates are air-dried. Bound stain is subsequently solubilized with 10 mM trizma base, and the absorbance is read on an automated plate reader at a wavelength of 515 nm. For suspension cells, the methodology is the same except that the assay is terminated by fixing settled cells at the bottom of the wells by gently adding 50 μl of 80% TCA (final concentration, 16% TCA). Using the seven absorbance measurements [time zero, control growth, and test growth in the presence of drug at the five concentration levels], the percentage growth is calculated at each of the drug concentrations levels.
(§2) Brefeldin A was tested by the NCI for inhibition of tumor cell proliferation in the 60-cell screen. The NCI 60-cell screen was performed essentially as described for FIG. 9. Data available from the NCI database for Brefeldin A was compared with more recent AVP 893 data. […] Several tumor cell lines were cultured in the presence of either AVP 893 or Brefeldin A for about 72 hours before assessing proliferation response by measuring total protein (SRB), as described for FIG. 9. The results of the head-to-head comparisons performed in-house also show substantial variation in the relative proliferative responses of cells to Brefeldin A and AVP 893 in vitro (TABLE 3).

Hs578T = assay: as above; type: cell-based; details: in-house head-to-head, about 72 hours, SRB
Description: as §1, §2

HCC 1806 = assay: as above; type: cell-based; details: in-house head-to-head, about 72 hours
Description: as §1, §2

MOLT-4 = assay: as above; type: cell-based; details: in-house head-to-head, about 72 hours, SRB
Description: as §1, §2

- activity in kinase and biochemical assays (60 kinase assays): no drug activity was observed
SMILES: O=C(Nc1ccccn1)c1ccc2[nH]c(-c3ccc(NC(=O)C45C[C@H]6C[C@@H](C4)C[C@@H](C5)C6)cc3)nc2c1 [AVP 13358]
- induction of CD23 and IL-4 receptor [1]: potently blocked the induction of these receptors
- degranulation [2]: does not inhibit degranulation
- IL-1 levels ([3]; in vitro): does not affect IL-1 levels
- levels of cytokines including IL-4, IL-5, IL-13 ([3]; stimulated T cells, 16-36 hours): potently suppressed the levels of most cytokines

SMILES: C[C@H]1CCC/C=C/[C@@H]2C[C@H](O)C[C@H]2[C@H](O)/C=C/C(=O)O1 [Brefeldin A, reference compound]
- concentrations inhibiting proliferation of virtually all cells [4]: 10 to 100 nM
- Mannosidase II staining pattern (Mannosidase II): completely dispersed
- GS28 expression (GS28): variable effects
- IC50 (NCI H-460): 0.005 µg/mL (≈ 0.0178 µM)
- IC50 (Hs578T): 0.1 µg/mL (≈ 0.357 µM)
- IC50 (HCC 1806): 0.03 µg/mL (≈ 0.107 µM)
- IC50 (MOLT-4): 0.003 µg/mL (≈ 0.0107 µM)
